Experimental findings from BindingDB's records for doi:10.3109/14756366.2012.723206 (Yanbian University College of Pharmacy, 2013) are described below.

Each structure is given as a SMILES string. pIC50: −log10 of the molar value.

The target in one assay is T1, Tyrosine-protein phosphatase non-receptor type 1 (Homo sapiens, UniProt P18031).
T1 sequence (P18031 whole entry): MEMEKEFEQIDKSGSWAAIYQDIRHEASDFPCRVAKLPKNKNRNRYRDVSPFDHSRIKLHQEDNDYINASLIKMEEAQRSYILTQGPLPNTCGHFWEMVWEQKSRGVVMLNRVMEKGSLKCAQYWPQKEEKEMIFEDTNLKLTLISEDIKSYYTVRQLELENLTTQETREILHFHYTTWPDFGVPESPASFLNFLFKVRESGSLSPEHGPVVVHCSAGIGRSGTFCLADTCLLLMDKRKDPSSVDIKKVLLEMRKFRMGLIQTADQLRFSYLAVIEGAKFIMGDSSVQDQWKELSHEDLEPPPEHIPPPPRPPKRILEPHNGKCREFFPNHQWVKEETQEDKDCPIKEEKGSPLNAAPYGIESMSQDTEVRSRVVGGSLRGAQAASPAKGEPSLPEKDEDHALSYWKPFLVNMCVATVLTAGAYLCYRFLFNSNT
The assay is described as follows: Enzymatic Assay. The settings on record: pH 6.5; 30 °C. On the procedure: Briefly, the enzymatic activity of the PTP1B catalytic domain was determinedat 30°C by monitoring the hydrolysis of pNPP. […] Assays were performed in a total volume of 100 μL containing 50 mmol/L 3-[N-morpholino]propane-sulfonic acid (MOPs), pH = 6.5, 2 mmol/L pNPP, and 30 nmol/L recombinant PTP1B, as well as the indicated concentrations of the inhibitor.
The term pIC50 denotes the negative decadic logarithm of the IC50, by convention in mol/L. For `O=C1CC(c2ccccc2Br)Oc2cc(O)cc(O)c21` (stereo not given) [PTP inhibitor, 4h], the pIC50 was 5.31.

As to `O=C1CC(c2ccc(Cl)cc2)Oc2cc(O)cc(O)c21` (stereo not given) [PTP inhibitor, 4f], the pIC50 was 5.44. This pIC50 and that of the compound before are within 0.2 log units of each other.

Consider `O=C1CC(c2cccc(C(F)(F)F)c2)Oc2cc(O)cc(O)c21` (stereo not given) [PTP inhibitor, 4k], for which the pIC50 was 5.63.

In turn, `O=C1CC(c2ccccc2Cl)Oc2cc(O)cc(O)c21` (stereo not given) [PTP inhibitor, 4d] had a pIC50 of 4.99.

Consider `Cc1ccc(C2CC(=O)c3c(O)cc(O)cc3O2)cc1` (stereo not given) [PTP inhibitor, 4m], for which the pIC50 is 4.85.

For `O=C1CC(c2cccc(Br)c2)Oc2cc(O)cc(O)c21` (stereo not given) [PTP inhibitor, 4i], the pIC50 was 5.13.

As to `O=C1CC(c2ccccc2)Oc2cc(O)cc(O)c21` (stereo not given) [PTP inhibitor, 4l], the pIC50 is 4.43. Against the preceding compound, the pIC50 is 0.70 log units lower.

For `O=C1CC(c2cccc(F)c2)Oc2cc(O)cc(O)c21` (stereo not given) [PTP inhibitor, 4b], the pIC50 was 5.10.

`O=C1CC(c2cccc(Cl)c2)Oc2cc(O)cc(O)c21` (stereo not given) [PTP inhibitor, 4e] showed a pIC50 of 5.38. Compared with the last compound, the pIC50 is 0.28 log units higher.

Compound `O=C1CC(c2ccccc2F)Oc2cc(O)cc(O)c21` (stereo not given) [PTP inhibitor, 4a] gave a pIC50 of 5.04.

As to `O=C1CC(c2ccc(F)cc2)Oc2cc(O)cc(O)c21` (stereo not given) [PTP inhibitor, 4c], the pIC50 was 5.58. Against the preceding compound, the pIC50 is 0.54 log units higher.

`O=C1CC(c2ccc(Cl)cc2Cl)Oc2cc(O)cc(O)c21` (stereo not given) [PTP inhibitor, 4g] had a pIC50 of 5.62.

As to `O=C1CC(c2ccc(Br)cc2)Oc2cc(O)cc(O)c21` (stereo not given) [PTP inhibitor, 4j], the pIC50 is 5.46. The pIC50 values of the last two compounds are within 0.2 log units of each other.

The next assay has as its target T2, M-phase inducer phosphatase 2 (Homo sapiens, UniProt P30305).
T2 sequence (P30305 whole entry): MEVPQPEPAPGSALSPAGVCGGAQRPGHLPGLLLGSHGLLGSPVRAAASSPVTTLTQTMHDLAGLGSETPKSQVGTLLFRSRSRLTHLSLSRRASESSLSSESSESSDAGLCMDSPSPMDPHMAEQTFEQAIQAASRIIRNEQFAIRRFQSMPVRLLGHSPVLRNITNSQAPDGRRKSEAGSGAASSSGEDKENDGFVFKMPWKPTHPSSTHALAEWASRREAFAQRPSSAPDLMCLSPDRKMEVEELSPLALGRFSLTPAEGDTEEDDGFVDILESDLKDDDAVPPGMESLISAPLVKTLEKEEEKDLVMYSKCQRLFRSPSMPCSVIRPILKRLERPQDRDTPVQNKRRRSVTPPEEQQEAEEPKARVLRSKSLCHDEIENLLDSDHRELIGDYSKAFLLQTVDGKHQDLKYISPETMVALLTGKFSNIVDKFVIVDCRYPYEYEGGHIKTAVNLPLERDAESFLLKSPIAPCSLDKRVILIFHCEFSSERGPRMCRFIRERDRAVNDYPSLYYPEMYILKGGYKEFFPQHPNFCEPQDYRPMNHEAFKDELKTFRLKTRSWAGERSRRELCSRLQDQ
Nature of the assay: Enzymatic Assay. The following applies: pH 6.5; 30 °C.
For `O=C1CC(c2cccc(C(F)(F)F)c2)Oc2cc(O)cc(O)c21` (stereo not given) [PTP inhibitor, 4k], the pIC50 is 5.07.

The target of a further assay is T3, Tyrosine-protein phosphatase non-receptor type 2 (Homo sapiens, UniProt P17706).
T3 sequence (P17706 whole entry): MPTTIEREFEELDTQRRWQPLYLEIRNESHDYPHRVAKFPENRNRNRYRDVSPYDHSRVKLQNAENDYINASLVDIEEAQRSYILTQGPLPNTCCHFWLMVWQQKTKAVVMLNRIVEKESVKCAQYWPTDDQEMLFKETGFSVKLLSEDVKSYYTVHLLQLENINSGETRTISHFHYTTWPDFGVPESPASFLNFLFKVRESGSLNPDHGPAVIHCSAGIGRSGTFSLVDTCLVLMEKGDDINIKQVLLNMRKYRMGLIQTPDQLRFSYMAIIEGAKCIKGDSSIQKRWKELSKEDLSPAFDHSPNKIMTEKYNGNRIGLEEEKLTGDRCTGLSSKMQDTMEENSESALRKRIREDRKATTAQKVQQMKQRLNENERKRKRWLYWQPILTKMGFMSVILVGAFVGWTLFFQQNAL
Nature of the assay: Enzymatic Assay. The following applies: pH 6.5; 30 °C.
`O=C1CC(c2cccc(C(F)(F)F)c2)Oc2cc(O)cc(O)c21` (stereo not given) [PTP inhibitor, 4k] gave a pIC50 of 5.05.
